In patent US20210371491A1, “CHIMERIC ANTIGEN RECEPTORS THAT BIND TO PROSTATE SPECIFIC MEMBRANE ANTIGEN” (Albert-Ludwigs-Universitaet Freiburg, priority 2018, published 2021):
Values joined by “and” are separate entries in the source; they are usually repeats but may differ in a detail not shown here. Equal values may be shown once.

Test system: C4-2^luc+ tumor xenografts
Assay: Treatment of C4-2^luc+ tumor xenografts by docetaxel chemotherapy plus intravenous CAR T cells (Example 12)
Type: in vivo, mice
Method: (A) Schematic of combined chemotherapy with intravenous CAR T cell therapy. Tumor engraftment was established in animals by subcutaneous injection of 1.5×10^6 cells. Chemotherapy had started at day 1 of the treatment for 3 days by intraperitoneal injection of docetaxel (DOC, 6 mg/kg bw). 48 hours after the last chemotherapy cycle, mice were injected intravenously with single doses of 5×10^6 CAR28 (n=3) or CAR41 T cells (n=3). Control mice were injected with docetaxel alone (n=3) or left untreated (control, n=4). Tumors were visualized via BLI until the end of treatment at day 17. D, day; i.v, intravenous injection; i.p, intraperitoneal; s.c, subcutaneous.
(B) Antitumor activity of CAR28 and CAR41 T cells in combination with docetaxel chemotherapy. Mice with subcutaneously growing C4-2^luc+ tumors (200-250 mm^3) were intraperitoneally injected with docetaxel (DOC; 6 mg/kg bw) on days 1, 2, and 3 of treatment. 48 hours later mice were additionally injected with a single dose of 5×10^6 CAR28 (n=3) or CAR41 T cells (n=3) intravenously. Tumor growth was monitored by BLI. […] Statistical significant differences are indicated by *p<0.05.
Mice with large C4-2^luc+ tumor xenografts (200-250 mm^3) were intraperitoneally injected with 3 daily cycles of docetaxel (DOC, 6 mg/kg bw on days 1, 2, and 3 of treatment) (FIG. 9A). 48 hours after the last cycle, mice were intravenously injected with only one dose of 5×10^6 CAR28 (n=3) CAR41 T cells (n=3), or PBS (n=3) respectively (FIG. 9A). Control animals (n=4) remained completely untreated. Tumor growth was monitored by BLI as described above. […] Compared to the control group (1817.5±165.5 mm^3) tumor end volumes of 338.2±355.6 mm^3 for mice treated with DOC alone and of 599.9±317.2 mm^3 for mice treated with DOC+CAR28 were reached on day 17 (FIG. 9C). […] A mean tumor volume of 50.2±71.0 mm^3 was determined (FIG. 9C).

`CC(=O)O[C@@]12CO[C@@H]1C[C@H](O)[C@@]1(C)C(=O)[C@H](O)C3=C(C)[C@@H](OC(=O)[C@H](O)[C@@H](NC(=O)OC(C)(C)C)c4ccccc4)C[C@@](O)([C@@H](OC(=O)c4ccccc4)[C@H]21)C3(C)C` [DOC, docetaxel] was tested, and the “tumor growth compared to control group (in words)” value (DOC 6 mg/kg bw days 1-3 ± CAR T cells i.v.) was “inhibition of tumor growth”, the “partial remission (PR), mice” value (DOC 6 mg/kg bw i.p. days 1-3, CAR T cells 5×10^6 i.v. 48 h later, tumors 200-250 mm^3) was “⅔” and the mean tumor volume (day 17, DOC 6 mg/kg bw days 1-3 ± CAR T cells i.v.) was 338.2±355.6 mm^3 and 338.3±355.6 mm^3.
